Among the data in US12479831B2, “Substituted N(-methyl-D3)pyridazine-3-carboxamide or M-(methyl-D3)-nicotinamide compounds as IL-12, IL-23 and/or IFNα modulators” (BRISTOL-MYERS SQUIBB COMPANY, priority 2020, dated 2025) are IC50 values, retold here.

The assay relates to IFNα-Induced STAT Phosphorylation in Human Whole Blood. Briefly: IFNα-Induced STAT Phosphorylation in Human Whole Blood. It counts as cell-based. The settings on record: 1 h incubation with compound, 1000 U/mL recombinant human IFNα A/D for 15 min, pSTAT5 (pY694) median fluorescence intensity in CD3 positive population, read-out: hWB IC50. How it is done: IFNα-Induced STAT Phosphorylation in Human Whole Blood
After an hour long incubation with compound, human whole blood (drawn with either EDTA or ACD-A as anti-coagulant) was stimulated with 1000 U/mL recombinant human IFNα A/D (R&D Systems 11200-2) for 15 min. The stimulation was stopped by adding Fix/Lyse buffer (BD 558049). Cells were stained with a CD3 FITC antibody (BD 555916), washed, and permeabilized on ice using Perm III buffer (BD 558050). […] The amount of pSTAT5 expression was quantitated by median fluorescence intensity after gating on the CD3 positive population.
IFNα-Induced STAT Phosphorylation in Human Whole Blood Inhibition Data

The IC50 is the midpoint of a concentration-inhibition curve. As to `[2H]C([2H])([2H])NC(=O)c1nnc(NC(=O)C2CC2)cc1Nc1cccc(-c2cnc(C3(O)COC3)cn2)c1OC` [Example 33, 6-(cyclopropanecarboxamido)-4-((3-(5-(3-hydroxyoxetan-3-yl)pyrazin-2-yl)-2-methoxyphenyl)amino)-N-(methyl-d3)pyridazine-3-carboxamide], the half-inhibitory concentration (IC50) is 43 nM.

On to `[2H]C([2H])([2H])NC(=O)c1nnc(Nc2cnn(C)n2)cc1Nc1cccc(-c2ncc(F)cn2)c1OC` [Example 90, 4-((3-(5-fluoropyrimidin-2-yl)-2-methoxyphenyl)amino)-N-(methyl-d3)-6-((2-methyl-2H-1,2,3-triazol-4-yl)amino)pyridazine-3-carboxamide], for which the IC50 came to 170 nM. As for `[2H]C([2H])([2H])NC(=O)c1nnc(NC(=O)C2CC2)cc1Nc1cccc(-c2ccc(C(=O)N3CCCC3)cn2)c1OC` [Example 45], the 50% inhibitory concentration (IC50) is 218 nM. For `[2H]C([2H])([2H])NC(=O)c1nnc(NC(=O)C2CC2)cc1Nc1cccc(-c2cn(C)c(=O)cn2)c1OC` [Example 10, 6-(cyclopropanecarboxamido)-4-((2-methoxy-3-(4-methyl-5-oxo-4,5-dihydropyrazin-2-yl)phenyl)amino)-N-(methyl-d3)pyridazine-3-carboxamide] the value was 194 nM.

For the compound `[2H]C([2H])([2H])NC(=O)c1nnc(Nc2cnn(CC)n2)cc1Nc1cccc(-c2ncc(F)cn2)c1OC` [Example 87, 6-((2-ethyl-2H-1,2,3-triazol-4-yl)amino)-4-((3-(5-fluoropyrimidin-2-yl)-2-methoxyphenyl)amino)-N-(methyl-d3)pyridazine-3-carboxamide], the half-maximal inhibitory concentration (IC50) was found to be 343 nM. For the compound `[2H]C([2H])([2H])NC(=O)c1nnc(Nc2ccc(OC)nn2)cc1Nc1cccc(-c2ncccn2)c1OC` [Example 96, 4-((2-methoxy-3-(pyrimidin-2-yl)phenyl)amino)-6-((6-methoxypyridazin-3-yl)amino)-N-(methyl-d3)pyridazine-3-carboxamide], the IC50 is 96 nM. Consider `[2H]C([2H])([2H])NC(=O)c1nnc(Nc2cc(C(C)(C)O)ccn2)cc1Nc1cccc(-c2ncc(F)cn2)c1OC` [Example 102, 4-((3-(5-fluoropyrimidin-2-yl)-2-methoxyphenyl)amino)-6-((4-(2-hydroxypropan-2-yl)pyridin-2-yl)amino)-N-(methyl-d3)pyridazine-3-carboxamide], for which the 50% inhibitory concentration (IC50) stood at 212 nM. For `[2H]C([2H])([2H])NC(=O)c1nnc(Nc2cc(C(C)(C)O)n(C)n2)cc1Nc1cccc(-c2ncc(F)cn2)c1OC` [Example 82, 4-((3-(5-fluoropyrimidin-2-yl)-2-methoxyphenyl)amino)-6-((5-(2-hydroxypropan-2-yl)-1-methyl-1H-pyrazol-3-yl)amino)-N-(methyl-d3)pyridazine-3-carboxamide] the value was 49 nM. Next, `[2H]C([2H])([2H])NC(=O)c1nnc(NC(=O)C2CC2)cc1Nc1cccc(-c2ncc(N3CCOCC3=O)cn2)c1OC` [Example 117]: 111 nM; `[2H]C([2H])([2H])NC(=O)c1cnc(Nc2cc(C#N)n(C)n2)cc1Nc1cccc(-c2ncccn2)c1OC` [Example 61, 6-((5-Cyano-1-methyl-1H-pyrazol-3-yl)amino)-4-((2-methoxy-3-(pyrimidin-2-yl)phenyl)amino)-N-(methyl-d3)nicotinamide]: 225 nM; `[2H]C([2H])([2H])NC(=O)c1nnc(Nc2cc(=O)n(C)cn2)cc1Nc1cccc(-c2ncc(F)cn2)c1OC` [Example 106, 4-((3-(5-fluoropyrimidin-2-yl)-2-methoxyphenyl)amino)-N-(methyl-d3)-6-((1-methyl-6-oxo-1,6-dihydropyrimidin-4-yl)amino)pyridazine-3-carboxamide]: 151 nM.

Take `[2H]C([2H])([2H])NC(=O)c1nnc(Nc2cnn(CC)n2)cc1Nc1cccc(-c2ncccn2)c1OC` [Example 86, 6-((2-ethyl-2H-1,2,3-triazol-4-yl)amino)-4-((2-methoxy-3-(pyrimidin-2-yl)phenyl)amino)-N-(methyl-d3)pyridazine-3-carboxamide]: the 50% inhibitory concentration (IC50) turned out to be 96 nM. Turning to `[2H]C([2H])([2H])NC(=O)c1nnc(NC(=O)C2CC2)cc1Nc1cccc(-c2ncc(C(C)(O)CF)cn2)c1OC` (stereo not drawn) [Example 26, 6-(cyclopropanecarboxamido)-4-((3-(5-(1-fluoro-2-hydroxypropan-2-yl)pyrimidin-2-yl)-2-methoxyphenyl)amino)-N-(methyl-d3)pyridazine-3-carboxamide], the IC50 came out at 16 nM.

Regarding `[2H]C([2H])([2H])NC(=O)c1cnc(Nc2cnc(C#N)cn2)cc1Nc1cccc(-c2ncccn2)c1OC` [Example 72, 6-((5-cyanopyrazin-2-yl)amino)-4-((2-methoxy-3-(pyrimidin-2-yl)phenyl)amino)-N-(methyl-d3)nicotinamide], the IC50 is 168 nM. On to `[2H]C([2H])([2H])NC(=O)c1nnc(NC(=O)C2CC2)cc1Nc1cccc(-c2ncc(C(O)(CF)CF)cn2)c1OC` [Example 29, 6-(cyclopropanecarboxamido)-4-((3-(5-(1,3-difluoro-2-hydroxypropan-2-yl)pyrimidin-2-yl)-2-methoxyphenyl)amino)-N-(methyl-d3)pyridazine-3-carboxamide], for which the half-maximal inhibitory concentration (IC50) amounted to 39 nM.

`[2H]C([2H])([2H])NC(=O)c1cnc(Nc2ccccn2)cc1Nc1cccc(-c2ncc(F)cn2)c1OC` [Example 70, 4-((3-(5-fluoropyrimidin-2-yl)-2-methoxyphenyl)amino)-N-(methyl-d3)-6-(pyridin-2-ylamino)nicotinamide]: the IC50 was found to be 90 nM. Turning to `[2H]C([2H])([2H])NC(=O)c1nnc(NC(=O)C2CC2)cc1Nc1cccc(-c2ncc(C(=O)N3CCC3)cn2)c1OC` [Example 48, 4-((3-(5-(azetidine-1-carbonyl)pyrimidin-2-yl)-2-methoxyphenyl)amino)-6-(cyclopropanecarboxamido)-N-(methyl-d3)pyridazine-3-carboxamide], the IC50 was found to be 118 nM. For `[2H]C([2H])([2H])NC(=O)c1nnc(Nc2cc(C(C)(C)O)n(C)n2)cc1Nc1cccc(-c2ncccn2)c1OC` [Example 81, 6-((5-(2-hydroxypropan-2-yl)-1-methyl-1H-pyrazol-3-yl)amino)-4-((2-methoxy-3-(pyrimidin-2-yl)phenyl)amino)-N-(methyl-d3)pyridazine-3-carboxamide] the value was 14 nM. Take `[2H]C([2H])([2H])NC(=O)c1nnc(NC(=O)C2CC2)cc1Nc1cc(F)cc(-c2ccc(C(=O)N(C)C)cn2)c1OC` [Example 44, 6-(cyclopropanecarboxamido)-4-((3-(5-(dimethylcarbamoyl)pyridin-2-yl)-5-fluoro-2-methoxyphenyl)amino)-N-(methyl-d3)pyridazine-3-carboxamide]: the IC50 amounted to 109 nM.

With `[2H]C([2H])([2H])NC(=O)c1nnc(Nc2cc3n(n2)CCN(C2CC2)C3=O)cc1Nc1cccc(-c2ncc(F)cn2)c1OC` [Example 109, 6-((5-cyclopropyl-4-oxo-4,5,6,7-tetrahydropyrazolo[1,5-a]pyrazin-2-yl)amino)-4-((3-(5-fluoropyrimidin-2-yl)-2-methoxyphenyl)amino)-N-(methyl-d3)pyridazine-3-carboxamide], the IC50 amounted to 262 nM. For `[2H]C([2H])([2H])NC(=O)c1cnc(Nc2ccn(C3CC3)n2)cc1Nc1cccc(-c2ncccn2)c1OC` [Example 69, 6-((1-cyclopropyl-1H-pyrazol-3-yl)amino)-4-((2-methoxy-3-(pyrimidin-2-yl)phenyl)amino)-N-(methyl-d3)nicotinamide], the IC50 stood at 56 nM. Next, `[2H]C([2H])([2H])NC(=O)c1nnc(NC(=O)C2CC2)cc1Nc1cc(F)cc(-c2cnc(C(C)O)cn2)c1OC` (stereo not drawn) [Example 24, 6-(cyclopropanecarboxamido)-4-((5-fluoro-3-(5-(1-hydroxyethyl)pyrazin-2-yl)-2-methoxyphenyl)amino)-N-(methyl-d3)pyridazine-3-carboxamide]: 167 nM; `[2H]C([2H])([2H])NC(=O)c1nnc(NC(=O)C2CC2)cc1Nc1cccc(-c2ncc(C3CCOC3)cn2)c1OC` (stereo not drawn) [Example 55, 6-(Cyclopropanecarboxamido)-4-((2-methoxy-3-(5-(tetrahydrofuran-3-yl)pyrimidin-2-yl)phenyl)amino)-N-(methyl-d3)pyridazine-3-carboxamide]: 47 nM. Next, `[2H]C([2H])([2H])NC(=O)c1nnc(NC(=O)C2CC2)cc1Nc1cccc(-c2cnc(N3CCN(C(C)=O)CC3)cn2)c1OC` [Example 59, 4-((3-(5-(4-acetylpiperazin-1-yl)pyrazin-2-yl)-2-methoxyphenyl)amino)-6-(cyclopropanecarboxamido)-N-(methyl-d3)pyridazine-3-carboxamide]: 121 nM. Consider `[2H]C([2H])([2H])NC(=O)c1nnc(NC(=O)C2CC2)cc1Nc1cccc(-c2cnc(C(=O)NC)cn2)c1OC` [Example 39, 6-(cyclopropanecarboxamido)-4-((2-methoxy-3-(5-(methylcarbamoyl)pyrazin-2-yl)phenyl)amino)-N-(methyl-d3)pyridazine-3-carboxamide], for which the half-maximal inhibitory concentration (IC50) stood at 218 nM. In the case of `[2H]C([2H])([2H])NC(=O)c1cnc(Nc2ccn(C)n2)cc1Nc1cccc(-c2ncc(F)cn2)c1OC` [Example 65, 4-((3-(5-fluoropyrimidin-2-yl)-2-methoxyphenyl)amino)-N-(methyl-d3)-6-((1-methyl-1H-pyrazol-3-yl)amino)nicotinamide], the IC50 was 86 nM. For `[2H]C([2H])([2H])NC(=O)c1cnc(Nc2ccc(OC)nn2)cc1Nc1cccc(-c2ncc(F)cn2)c1OC` [Example 74, 4-((3-(5-fluoropyrimidin-2-yl)-2-methoxyphenyl)amino)-6-((6-methoxypyridazin-3-yl)amino)-N-(methyl-d3)nicotinamide] the value was 87 nM.
